Molecular target: T1, I65T PAH mutant (Homo sapiens, UniProt P00439, I65T)
T1 construct: made in house; the paragraph itself says 'eukaryotic cell cultures' (pMAL vector)
T1 sequence (P00439 1-452 I65T): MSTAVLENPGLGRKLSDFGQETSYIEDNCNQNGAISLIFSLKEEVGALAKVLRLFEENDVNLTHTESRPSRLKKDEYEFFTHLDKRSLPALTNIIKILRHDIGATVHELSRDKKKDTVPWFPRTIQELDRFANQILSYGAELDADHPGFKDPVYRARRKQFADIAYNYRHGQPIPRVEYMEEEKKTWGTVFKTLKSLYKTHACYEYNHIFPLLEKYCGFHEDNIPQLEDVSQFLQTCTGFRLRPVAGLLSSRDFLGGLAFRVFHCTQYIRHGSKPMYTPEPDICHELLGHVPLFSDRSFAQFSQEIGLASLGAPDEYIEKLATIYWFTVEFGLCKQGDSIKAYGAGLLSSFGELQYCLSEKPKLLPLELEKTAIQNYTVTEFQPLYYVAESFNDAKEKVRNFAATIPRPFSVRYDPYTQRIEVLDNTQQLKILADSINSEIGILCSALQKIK
Experiment: PKU-mutant activity enhancement without chemical denaturants, CE-UV
Format: biochemical
Details: ligand 20 μM, no denaturant
Experimental: Expression of recombinant human WT-PAH and two PAH mutants ([…]) as fusion protein with maltose-binding protein in […] using pMAL expression vector was performed by the Martinez laboratory at the University of Bergen as described in Svebak et al., Biochem. J., 1995, 306, 589-597. Briefly, purification of the fusion proteins expressed in the pMAL vector system was performed using affinity chromatography followed by size-exclusion chromatography to remove low molecular weight components. Subsequently, the fusion proteins were cleaved by the restriction protease factor Xa and then phosphorylated by cyclic adenosine monophosphate (cAMP)-dependent protein kinase. The two clinically relevant PAH mutants, I65T and R261Q comprise single-point mutations in the regulatory and catalytic domain, respectively which are associated with highly variable phenotypes ranging from mild to classical PKU. For instance, patients with R261Q genotypes are reported to have inconsistent responses to BH4 therapy. In this work, I65T and R261Q PAH mutants were measured to have residual catalytic activities of (35±1)% and (5±0.5)% relative to WT PAH under standardized conditions (i.e., enzyme concentrations, assay buffer etc.), respectively. Stock solutions of WT-PAH and PAH mutants were prepared in enzyme reaction buffer (20 mM HEPES pH 7.0, 200 mM NaCl), and divided into separate 10 μL aliquots in 0.5 mL sterilized centrifuge tubes prior to storage at −80° C. Note that all enzyme assays were performed on aliquots of frozen enzymes thawed slowly in the fridge prior to daily use.
Tetrameric human phenylalanine hydroxylase (PAH) enzyme kinetic assays were performed off-line under standardized conditions prior to quantification of Tyr formation by CE with UV detection. Enzyme assays were performed by first mixing together Phe (1 mM), catalase (100 nM) and PAH (0.25 μM/subunit) in a reaction buffer (20 mM HEPES and 200 mM NaCl, pH 7.0) that were equilibrated at 25° C. for 4 min. Then, ferrous (Fe^2+) ammonium sulfate (100 μM) was added to the solution for 1 min and the reaction was subsequently initiated by addition of BH4 ([…]) with DTT (5 mM) using a total volume of 100 μL. The reaction mixture was then vortexed for 60 s followed by sonication for 2 min prior to centrifugation for 10 s at 4 g and storage in a refrigerator (+4° C.). An aliquot (20 μL) was withdrawn from the quenched enzyme reaction and placed in a micro vial containing Me-Tyr as IS (100 μM) prior to CE analysis. The stability of the quenched enzyme reaction was confirmed by intermittent analysis of PAH activity over 6 h at room temperature, and no significant changes in the Tyr/IS or Phe/Tyr response ratio were measured. Enzymatic reactions were performed for both WT-PAH and two PAH mutants by pre-equilibrating each ligand for 10 min prior to addition of ferrous ion and BH4/DDT as described in enzyme reaction protocol in order to assess for ligand-induced PAH inhibition or activation.
For instance, a recovery of 50% of residual enzyme activity was achieved without ligand when PAH was incubated in 8.0 M urea after its dilution to 0.5 M urea to trigger protein refolding. In order to further reduce enzyme reversibility, the recovery of PAH activity was subsequently assessed when it was incubated using 6.0 M GndCl for 10 min and subsequently diluted to 0.5 M GndCl in the presence or absence of screen-positive ligands (20 μM) in enzyme reaction buffer with PAH activity measurements performed by CE as described previously. […] Two lead compounds and several analogs of SA were subsequently tested using two different mutants of PAH (I65T and R261Q) without chemical denaturants after the two-tiered screening.

Row | Structure (SMILES) | activity enhancement of I65T PAH mutant | activity enhancement of I65T PAH mutant (listed as HI)
1 | Cc1ccnc(-n2c(=S)[nH]c3sc(C)c(C)c3c2=O)c1 [compound IV, 5,6-dimethyl-3-(4-methyl-2-pyridinyl)-2-thioxo-2,3-dihydrothieno[2,3-d] pyrimidin-4(1H)-one] | ~1.5 fold | –
2 | Nc1c(-c2ccc3ccccc3n2)c2ccc([N+](=O)[O-])cc2c(=O)n1Cc1ccccc1 [compound III, 3-amino-2-benzyl-7-nitro-4-(2-quinolyl)-1,2-dihydroisoquinolin-1-one] | – | ~1.5 fold

From patent US10426751B2, “Allosteric activators for treatment of phenylketonuria” (MCMASTER UNIVERSITY, priority 2015, dated 2019)
